Assay results published in US9056923B2, “Mimetic peptides derived from collagen type IV and their use for treating angiogenesis- and lymphagiogenesis-dependent diseases” (THE JOHNS HOPKINS UNIVERSITY, priority 2010, dated 2015).
Entries after “also recorded” stand apart in the source; their conditions may differ. Ends that are not written are not given here.

Tests used:
[1] = tested on: MDA-MB-231 breast cancer cells; assay: MDA-MB-231 wound healing type migration assay (Oris Pro); type: cell-based
Procedure: Breast cancer cells MDA-MB-231 are not suitable for the RT-CIM type experiments due to their thin elongated phenotype, thus the inhibition of migration was investigated using a wound healing type assay. This assay was performed using the Oris Pro Migration assay (Platypus Technologies, CMA 1.101). Briefly, 20,000-25,000 cells/well in full media were added to the 96 well plate containing stoppers to block migration of cells to the center region of the wells. Cells were allowed to adhere for 4 hours, after which the stoppers were removed. Cells were washed one time with PBS and fully supplemented media, with or without compound, was added to the wells. […], cells were stained with calcein AM (0.5 μg/mL) (Invitrogen, CA) and the cells that migrated to the center of the well were quantified by fluorescence intensity measured using a Victor V plate reader (Perkin Elmer) and also imaged using a Leica or Nikon microscope.

[2] = tested on: microvascular endothelial cells (MEC); assay: MEC adhesion assay; type: cell-based
Procedure: Similar to the migration assays, the inhibition activity of the peptide in cellular adhesion was assessed using the RT-CIM technology. In this case, 25,000 cells/well were plated in 16 wells E-plates (Roche, Basel Switzerland) in the presence or absence of the peptide. The adhesion was monitored over time (3 hours) by measuring changes in the electrical impedance, which is a direct measure of the cells adhering on the electrodes. […] Assays were performed in at least two independent replicates and each replicate was performed using two experimental duplicates.

[3] = tested on: microvascular endothelial cells (MEC); assay: MEC migration assay; type: cell-based
Procedure: The inhibitory potential of the peptides was measured using a real time migration assay system based on electrical impedance (RT-CIM, ACEA Biosciences, CA). CIM 16 well plates (Roche, 05665817001) are composed of a top and bottom chamber separated by a microporous (8 μm) polycarbonate membrane. The membrane was coated with fibronectin (20 μg/mL), and 45,000 cells/well in serum free media with or without peptides were added to the top compartment. Media with chemoattractant (i.e., fully supplemented EBM-2) was added to the bottom compartment of the chamber and the plate was incubated at 37° C. for 20 hours. The sensors integrated on the bottom side of the membrane monitor and continuously record changes in impedance as the cells move through the membrane. The RT-CIM technology allows for easy quantification of cell migration by monitoring the cell index derived from the measured impedances. Assays were performed in at least two independent replicates and each replicate was performed using two experimental duplicates.

[4] = tested on: MDA-MB-231-luc-D3H2LN cells; assay: Tail vein assay of cancer metastasis (lung metastasis); type: in vivo; settings: luciferase-transfected MDA-MB-231 cells in nude mice, IVIS
Procedure: The tail vein assay of cancer metastasis protocol from Current Protocols of Cell Biology was used to measure the effect of SP2024 on lung metastasis (Elkin and Vlodaysky, 2001). […] of 5×10^5 cells/mL luciferase-transfected MDA-MB-231-luc-D3H2LN (Caliper Biosciences) cell suspension was slowly injected into nude mice (nude mice are easier to image because of their lack of fur). Two hours before cell inoculation vehicle or 10 mg/kg SP2024 were administered subcutaneously on a daily basis. Bioluminescence to detect metastasis was measured by IVIS imaging (Caliper Biosciences) via IP injection of 150 mg/kg D-luciferin.

[5] = tested on: choroidal neovascularization; assay: Laser-induced choroidal neovascularization model; type: in vivo, C57BL/6 mice; settings: 0.01, 0.1, or 1 μg into the mouse eye
Procedure: The ocular laser-induced choroidal neovascularization (NV) model of wet age-related macular degeneration was used for testing. 5-6-week-old female pathogen-free C57BL/6 mice were anesthetized with ketamine hydrochloride (100 mg/kg body weight) and pupils were dilated. Laser photocoagulation (75-μm spot size, 0.1-sec duration, 120 mW) was performed in the 9, 12, and 3 o'clock positions of the posterior pole of each eye with the slit lamp delivery system of an OcuLight GL diode laser (Iridex, Mountain View, Calif.) and a handheld cover slip as a contact lens to view the retina. Production of a tissue bubble by the laser, which indicates rupture of Bruch's membrane, is an important factor in obtaining choroidal NV; therefore, only burns in which a bubble is produced are included in the study. […] At day 7 the mice that received the naked peptides were dosed again whereas the mice that received the particles were administered PBS. Intravitreous injections were done under a dissecting microscope with a Harvard Pump Microinjection System and pulled glass micropipettes. After 14 days, the mice were perfused with 1 mL of PBS containing 50 mg/mL of fluorescein-labeled dextran (2×10^6 Daltons average molecular weight; Sigma-Aldrich, St. Louis, Mo.) and choroidal flat mounts were examined by fluorescence microscopy. Images were captured with a Nikon Digital Still Camera DXM1200 (Nikon Instruments Inc., New York, N.Y.). Image analysis software (Image-Pro Plus; Media Cybernetics, Silver Spring, Md.) was used to measure the total area of choroidal NV at each rupture site with the investigator masked with respect to treatment group.

[6] = tested on: VEGF mediated retinal neovascularization; assay: Rho/VEGF transgenic mice model of retinal neovascularization; type: in vivo; settings: 0.01, 0.1, or 1 μg into the mouse eye
Procedure: The ocular Rho/VEGF transgenic mice model of wet age-related macular degeneration also was used to test some of the peptides. Transgenic mice in which the rhodopsin promoter drives expression of VEGF in photoreceptors have the onset of VEGF production at P7 and develop extensive NV along the outer surface of the retina by P21 (Okamoto et al., 1997; To be et al., 1998). Mice hemizygous for the transgene (n=15 for each dose) were given an intraocular injection of 1 μl of PBS containing 0.01, 0.1, or 1 μg of peptide or scramble peptide in one eye at P7 and P14 and at P21 the mice were anesthetized, perfused with fluorescein-labeled dextran, and the total area of neovascularization on the outer surface of the retina was measured on retinal flat mounts by image analysis as above.

LRRFSTMPFMFININNVINF-NH2 [SP2024]
inhibition of migration of MDA-MB-231 cells [1]: strong; also recorded: inhibition of cell migration
inhibition of adhesion of MEC [2]: quite active
inhibition of migration of MEC [3]: quite active
lung metastasis [4]: inhibits lung metastasis
area of choroidal neovascularization [5]: generally decreased
area of retinal neovascularization [6]: generally decreased
